pIC50: −log10 of the molar value.

Type in all cases: functional, organism-based
Test [1] concerns Plasmodium falciparum. Briefly: Antimalarial activity against multidrug-resistant Plasmodium falciparum TM91C235 assessed as inhibition of [3H]hypoxanthine incorporation after 96 hrs by microtiter plate scintillation counting.
The subject of test [2] is Plasmodium falciparum. Description: Antimalarial activity against chloroquine-sensitive Plasmodium falciparum D6 assessed as inhibition of [3H]hypoxanthine incorporation after 96 hrs by microtiter plate scintillation counting.
The subject of test [3] is Plasmodium falciparum. Description: Antimalarial activity against chloroquine-,pyrimethamine-resistant Plasmodium falciparum W2 assessed as inhibition of [3H]hypoxanthine incorporation after 96 hrs by microtiter plate scintillation counting.

For orientation: pIC50 means −log10 of the IC50, conventionally taken in molar units. Regarding `CC[C@H]1OC(=O)[C@H](C)[C@@H](O[C@H]2C[C@@](C)(OC)[C@@H](O)[C@H](C)O2)[C@H](C)[C@@H](O[C@@H]2O[C@H](C)C[C@H](N(C)C)[C@H]2O)[C@](C)(O)C[C@@H](C)CN(CCCNC(=O)Nc2ccccc2-c2ccccc2)[C@H](C)[C@@H](O)[C@]1(C)O`, the pIC50 was 6.86 in the test on Plasmodium falciparum [1], 6.60 in the test on Plasmodium falciparum [2] and 6.69 in the test with Plasmodium falciparum [3].
On the same counts, the results for `CC[C@H]1OC(=O)[C@H](C)[C@@H](O[C@H]2C[C@@](C)(OC)[C@@H](O)[C@H](C)O2)[C@H](C)[C@@H](O[C@@H]2O[C@H](C)C[C@H](N(C)C)[C@H]2O)[C@](C)(O)C[C@@H](C)CN(CCCNC(=O)Nc2ccc(OC)c(OC3CCCC3)c2)[C@H](C)[C@@H](O)[C@]1(C)O` are 6.86, 6.35 and 6.70.
For the compound `CC[C@H]1OC(=O)[C@H](C)[C@@H](O[C@H]2C[C@@](C)(OC)[C@@H](O)[C@H](C)O2)[C@H](C)[C@@H](O[C@@H]2O[C@H](C)C[C@H](N(C)C)[C@H]2O)[C@](C)(O)C[C@@H](C)CN(CCCNC(=S)Nc2ccc(F)cc2)[C@H](C)[C@@H](O)[C@]1(C)O`, the values for the pIC50 with Plasmodium falciparum [1], in the test on Plasmodium falciparum [2] and in the test on Plasmodium falciparum [3] were 6.86, 6.50 and 7.14, respectively.
On the same counts, the results for `CC[C@H]1OC(=O)[C@H](C)[C@@H](O[C@H]2C[C@@](C)(OC)[C@@H](O)[C@H](C)O2)[C@H](C)[C@@H](O[C@@H]2O[C@H](C)C[C@H](N(C)C)[C@H]2O)[C@](C)(O)C[C@@H](C)CN(CCCNC(=O)Nc2ccc(C)cc2)[C@H](C)[C@@H](O)[C@]1(C)O` are 6.86, 6.48 and 7.05.
As for `CC[C@H]1OC(=O)[C@H](C)[C@@H](O[C@H]2C[C@@](C)(OC)[C@@H](O)[C@H](C)O2)[C@H](C)[C@@H](O[C@@H]2O[C@H](C)C[C@H](N(C)C)[C@H]2O)[C@](C)(O)C[C@@H](C)CN(CCCNC(=S)NC2CCCCCCCCCCC2)[C@H](C)[C@@H](O)[C@]1(C)O`, the figures for the negative-log IC50 (pIC50) in the test on Plasmodium falciparum [1], in the test with Plasmodium falciparum [2] and in the test with Plasmodium falciparum [3] were 6.85, 6.58 and 7.07, respectively.
On the same counts, the results for `CC[C@H]1OC(=O)[C@H](C)[C@@H](O[C@H]2C[C@@](C)(OC)[C@@H](O)[C@H](C)O2)[C@H](C)[C@@H](O[C@@H]2O[C@H](C)C[C@H](N(C)C)[C@H]2O)[C@](C)(O)C[C@@H](C)CN(CCCNC(=O)NCC2CCCCC2)[C@H](C)[C@@H](O)[C@]1(C)O` are 6.85, 6.22 and 6.95.
The corresponding values for `CC[C@H]1OC(=O)[C@H](C)[C@@H](O[C@H]2C[C@@](C)(OC)[C@@H](O)[C@H](C)O2)[C@H](C)[C@@H](O[C@@H]2O[C@H](C)C[C@H](N(C)C)[C@H]2O)[C@](C)(O)C[C@@H](C)CN(CCCNC(=O)Nc2ccc(OCc3ccccc3)cc2)[C@H](C)[C@@H](O)[C@]1(C)O` are 6.84, 6.52 and 6.76.
The corresponding values for `CC[C@H]1OC(=O)[C@H](C)[C@@H](O[C@H]2C[C@@](C)(OC)[C@@H](O)[C@H](C)O2)[C@H](C)[C@@H](O[C@@H]2O[C@H](C)C[C@H](N(C)C)[C@H]2O)[C@](C)(O)C[C@@H](C)CN(CCCNC(=S)NCC23CC4CC(CC(C4)C2)C3)[C@H](C)[C@@H](O)[C@]1(C)O` are 6.82, 6.26 and 6.68.
As to `CC[C@H]1OC(=O)[C@H](C)[C@@H](O[C@H]2C[C@@](C)(OC)[C@@H](O)[C@H](C)O2)[C@H](C)[C@@H](O[C@@H]2O[C@H](C)C[C@H](N(C)C)[C@H]2O)[C@](C)(O)C[C@@H](C)CN(CCCNC(=S)Nc2ccc(OCc3ccccc3)cc2)[C@H](C)[C@@H](O)[C@]1(C)O`, the pIC50 in the test on Plasmodium falciparum [1] is 6.80; in the test on Plasmodium falciparum [2] it was 6.60; with Plasmodium falciparum [3] it was 7.05.

Values taken from ChEMBL document CHEMBL1681728, “An automated, polymer-assisted strategy for the preparation of urea and thiourea derivatives of 15-membered azalides as potential antimalarial chemotherapeutics” (Bioorg Med Chem, 2011).
